# Measurements: paper PMC11707700, “Exploiting fourth-generation synchrotron radiation for enzyme and photoreceptor characterization” (IUCrJ, 2025)
# Experiments:
# SaBphP2-PCM = molecular target: T1, SaBphP2-PCM (Allostigmatella aurantiaca, UniProt Q09E27); assay: serial synchrotron X-ray crystallography (room temperature); format: binding; settings: covalent; chromophore; dark Pr state, 2.1 A refinement; also difference map 700 ms after 640 nm light
# T1 construct: gene STIAU_8420; photosensory core module (PAS-GAF-PHY), lacks C-terminal effector (histidine kinase) domain; recombinant; homodimer
# T1 sequence (Q09E27 1-490): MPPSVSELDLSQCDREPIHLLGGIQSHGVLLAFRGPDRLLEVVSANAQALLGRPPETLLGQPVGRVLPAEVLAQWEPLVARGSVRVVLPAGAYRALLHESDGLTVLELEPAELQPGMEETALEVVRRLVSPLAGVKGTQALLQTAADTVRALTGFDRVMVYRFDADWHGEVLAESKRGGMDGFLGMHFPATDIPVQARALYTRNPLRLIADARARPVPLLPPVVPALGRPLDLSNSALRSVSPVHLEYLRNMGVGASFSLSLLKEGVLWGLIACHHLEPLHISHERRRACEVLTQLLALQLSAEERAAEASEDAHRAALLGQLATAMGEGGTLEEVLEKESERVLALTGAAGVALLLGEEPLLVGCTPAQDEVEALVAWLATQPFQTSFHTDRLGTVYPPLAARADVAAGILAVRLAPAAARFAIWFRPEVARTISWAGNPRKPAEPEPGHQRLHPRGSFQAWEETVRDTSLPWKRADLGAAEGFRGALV
# [1] = molecular target: T2, photoactive yellow protein (PYP) (Halorhodospira halophila, UniProt P16113); assay: as above; format: binding; settings: covalent; thioester to conserved cysteine; space group P6_5, 1.8 A (fixed target) and 1.9 A (tape drive); PEG 4000, MES pH 6.5
# T2 construct: full length, 125 amino acids, 14 kDa; overexpressed in Escherichia coli; chromophore attached to the conserved cysteine
# T2 sequence (P16113 1-125): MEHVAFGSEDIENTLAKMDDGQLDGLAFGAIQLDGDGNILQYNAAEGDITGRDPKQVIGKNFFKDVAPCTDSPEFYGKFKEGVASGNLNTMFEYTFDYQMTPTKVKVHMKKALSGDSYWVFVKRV
Structure (SMILES),serial synchrotron X-ray crystallography (room temperature) (SaBphP2-PCM),serial synchrotron X-ray crystallography (room temperature) [1]
C=CC1=C(C)/C(=C/C2=NC(=C\c3[nH]c(/C=C4\NC(=O)C(C)=C4C=C)c(C)c3CCC(=O)O)/C(CCC(=O)O)=C2C)NC1=O [biliverdin],"The DED features, localized to the BV chromophore, indicate displacement of the BV",–
O=C(O)/C=C/c1ccc(O)cc1 [p-coumaric acid],–,The pCA chromophore pocket is marked by the red box
